Measurements published in patent US8853203B2, “Diazepinone derivatives” (Novartis AG, priority 2012, dated 2014).

Columns and labels:
human mGluR5a receptors = human mGluR5a receptors (Homo sapiens (Human), UniProt P41594); assay: inhibition of glutamate-induced elevation of intracellular calcium in L(tk-) cells expressing human mGluR5a; assay type: cell-based; conditions: for IC50: glutamate-induced intracellular calcium elevation, L(tk-) cells expressing human mGluR5a, read-out: mGluR5 IC50; for inhibition at 2 µM / inhibition at 10 µM: LTK; for inhibition at 2 µM: read-out: mGluR5 % inhibition at 2 μM; for inhibition at 10 µM: read-out: mGluR5 % inhibition at 10 μM
human mGluR5a receptors, sequence (P41594 other isoform, or with tags, fused parts or gaps): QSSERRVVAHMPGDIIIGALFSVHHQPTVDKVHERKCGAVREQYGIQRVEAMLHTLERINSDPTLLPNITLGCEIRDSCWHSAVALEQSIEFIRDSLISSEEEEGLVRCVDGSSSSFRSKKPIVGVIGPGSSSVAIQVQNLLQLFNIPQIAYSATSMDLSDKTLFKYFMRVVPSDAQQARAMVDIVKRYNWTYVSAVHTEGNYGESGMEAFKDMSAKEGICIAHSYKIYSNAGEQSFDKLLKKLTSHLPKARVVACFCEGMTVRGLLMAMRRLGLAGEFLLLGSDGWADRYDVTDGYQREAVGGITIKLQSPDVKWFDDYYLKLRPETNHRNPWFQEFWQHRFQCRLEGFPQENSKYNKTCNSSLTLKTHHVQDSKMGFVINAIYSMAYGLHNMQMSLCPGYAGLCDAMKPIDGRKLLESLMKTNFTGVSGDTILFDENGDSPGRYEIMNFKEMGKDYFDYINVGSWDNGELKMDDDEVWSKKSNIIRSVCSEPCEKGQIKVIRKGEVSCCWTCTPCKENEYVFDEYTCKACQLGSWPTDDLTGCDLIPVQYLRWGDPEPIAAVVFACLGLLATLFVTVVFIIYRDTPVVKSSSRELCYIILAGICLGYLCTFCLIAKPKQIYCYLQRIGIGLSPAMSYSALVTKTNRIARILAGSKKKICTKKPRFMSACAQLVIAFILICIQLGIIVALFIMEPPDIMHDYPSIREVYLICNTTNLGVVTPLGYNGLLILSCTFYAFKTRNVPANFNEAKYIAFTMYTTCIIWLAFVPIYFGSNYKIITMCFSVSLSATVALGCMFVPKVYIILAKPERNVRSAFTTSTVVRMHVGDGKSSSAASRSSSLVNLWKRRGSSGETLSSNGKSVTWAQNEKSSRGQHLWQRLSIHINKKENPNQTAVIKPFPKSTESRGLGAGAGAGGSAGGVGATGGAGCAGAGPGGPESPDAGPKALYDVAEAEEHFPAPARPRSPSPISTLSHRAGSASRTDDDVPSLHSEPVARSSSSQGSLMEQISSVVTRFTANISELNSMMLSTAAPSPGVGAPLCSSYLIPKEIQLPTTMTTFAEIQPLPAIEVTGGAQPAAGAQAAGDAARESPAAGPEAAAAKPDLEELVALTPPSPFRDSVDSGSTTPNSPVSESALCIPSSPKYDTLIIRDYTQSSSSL
Description: Activity of compounds of the present invention was examined by determination to what extent the glutamate-induced elevation of the intracellular calcium concentration in L(tk-) cells expressing human mGluR5a receptors (see L. P. Daggett et al., Neuropharm. Vol. 34, pages 871-886, 1995) is inhibited by utilizing methods as described e.g. by L. P. Daggett et al., Neuropharm. Vol. 34, pages 871-886 (1995) and P. J. Flor et al., J. Neurochem. Vol. 67, pages 58-63 (1996).

human mGluR1 = human mGluR1 (Homo sapiens (Human), UniProt Q13255); assay: mGluR1 antagonism, L-glutamate induced intracellular calcium increase (FLIPR) in CHO cells stably expressing human mGluR1; assay type: cell-based; conditions: for inhibition at 10 µM: CHO; for IC50: L-glutamate induced intracellular calcium, CHO cells expressing human mGluR1, FLIPR
human mGluR1, sequence (Q13255 19-1194): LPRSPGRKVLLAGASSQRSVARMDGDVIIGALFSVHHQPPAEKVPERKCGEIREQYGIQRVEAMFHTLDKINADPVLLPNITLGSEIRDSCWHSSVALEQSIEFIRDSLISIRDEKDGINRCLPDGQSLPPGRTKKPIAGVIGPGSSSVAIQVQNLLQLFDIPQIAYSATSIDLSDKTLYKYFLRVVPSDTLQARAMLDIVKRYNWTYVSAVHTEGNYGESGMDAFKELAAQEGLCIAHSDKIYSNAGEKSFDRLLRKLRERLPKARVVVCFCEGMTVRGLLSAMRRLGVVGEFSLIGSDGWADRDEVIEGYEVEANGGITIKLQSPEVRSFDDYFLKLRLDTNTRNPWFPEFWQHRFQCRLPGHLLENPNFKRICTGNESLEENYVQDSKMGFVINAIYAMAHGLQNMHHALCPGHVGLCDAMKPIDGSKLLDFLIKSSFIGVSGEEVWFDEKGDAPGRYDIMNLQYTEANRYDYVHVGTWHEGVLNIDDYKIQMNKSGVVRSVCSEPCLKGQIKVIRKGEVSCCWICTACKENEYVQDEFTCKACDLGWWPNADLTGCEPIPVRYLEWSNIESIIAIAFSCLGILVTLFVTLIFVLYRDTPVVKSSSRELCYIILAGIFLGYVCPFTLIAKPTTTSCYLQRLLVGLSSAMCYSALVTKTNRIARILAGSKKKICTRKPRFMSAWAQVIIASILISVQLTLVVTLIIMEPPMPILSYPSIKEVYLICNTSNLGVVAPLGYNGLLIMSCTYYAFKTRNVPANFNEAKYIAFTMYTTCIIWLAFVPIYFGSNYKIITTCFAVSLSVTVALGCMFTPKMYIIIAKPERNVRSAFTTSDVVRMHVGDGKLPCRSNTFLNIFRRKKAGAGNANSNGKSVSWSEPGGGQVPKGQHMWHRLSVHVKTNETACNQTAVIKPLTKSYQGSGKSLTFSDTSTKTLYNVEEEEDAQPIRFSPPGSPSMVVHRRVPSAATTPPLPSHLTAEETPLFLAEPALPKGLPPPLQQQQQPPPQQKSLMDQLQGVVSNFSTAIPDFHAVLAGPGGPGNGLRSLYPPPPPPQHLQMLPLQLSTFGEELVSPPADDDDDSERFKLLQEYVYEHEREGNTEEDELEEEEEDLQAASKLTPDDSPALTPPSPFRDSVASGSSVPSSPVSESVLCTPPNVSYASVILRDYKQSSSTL
Description: Activity of compounds of the present invention with respect to mGluR1 antagonism was examined by an assay based on measurements of L-glutamate induced intracellular calcium increases using a 96 well plate-based Fluorometric Imaging Plate Reader (FLIPR), and CHO cells stably expressing human mGluR1. L-glutamate induced robust calcium responses via human mGluR1 in a concentration-dependent manner and in the low micromolar range. The table below represents IC50 values of the inhibition of the glutamate-induced elevation of the intracellular calcium concentration.

IC50 (human mGluR5a receptors) | inhibition at 10 µM (human mGluR1) | IC50 (human mGluR1) | inhibition at 2 µM (human mGluR5a receptors) | inhibition at 10 µM (human mGluR5a receptors) | SMILES
0.148 µM | 56% |  |  |  | Cc1coc(-c2cccc3c2CCN2C(=O)CN=C(n4cnc(C5CC5)c4)C=C32)n1 [Example 87, 2-(4-cyclopropyl-1H-imidazol-1-yl)-9-(4-methyloxazol-2-yl)-7,8-dihydro-[1,4]diazepino[7,1-a]isoquinolin-5(4H)-one]
0.018 µM |  | > 10 µM |  |  | Cc1cc(-c2cccc3c2CCN2C(=O)CN=C(n4cnc(C5CC5)c4)C=C32)sn1 [Example 103, 2-(4-cyclopropyl-1H-imidazol-1-yl)-9-(3-methylisothiazol-5-yl)-7,8-dihydro-[1,4]diazepino[7,1-a]isoquinolin-5(4H)-one]
0.009 µM |  | 0.17 µM |  |  | CCc1cn(C2=NCC(=O)N3CCc4c(cccc4-c4ccco4)C3=C2)cn1 [Example 75, 2-(4-ethyl-1H-imidazol-1-yl)-9-(furan-2-yl)-7,8-dihydro-[1,4]diazepino[7,1-a]isoquinolin-5(4H)-one]
 |  | > 10 µM | 41% |  | O=C1CN=C(n2cnc(C3CC3)c2)C=C2c3cccc(-c4cc(C(F)(F)F)n[nH]4)c3CCN12 [Example 99b, 2-(4-cyclopropyl-1H-imidazol-1-yl)-9-(3-(trifluoromethyl)-1H-pyrazol-5-yl)-7,8-dihydro-[1,4]diazepino[7,1-a]isoquinolin-5(4H)-one]
0.275 µM |  | > 10 µM |  |  | CC(C)c1cn(C2=NCC(=O)N3CCc4c(cccc4-c4cnn(C)c4)C3=C2)cn1 [Example 72, 2-(4-isopropyl-1H-imidazol-1-yl)-9-(1-methyl-1H-pyrazol-4-yl)-7,8-dihydro-[1,4]diazepino[7,1-a]isoquinolin-5(4H)-one]
0.13 µM |  | > 10 µM |  |  | Cc1cn(C2=NCC(=O)N3CCc4c(cccc4-c4cccnc4)C3=C2)cn1 [Example 79, 2-(4-methyl-1H-imidazol-1-yl)-9-(pyridin-3-yl)-7,8-dihydro-[1,4]diazepino[7,1-a]isoquinolin-5(4H)-one]
0.21 µM |  | 1.5 µM |  |  | O=C1CN=C(n2cnc(CO)c2)C=C2c3cccc(I)c3CCN12 [Example 65, 2-(4-(hydroxymethyl)-1H-imidazol-1-yl)-9-iodo-7,8-dihydro-[1,4]diazepino[7,1-a]isoquinolin-5(4H)-one]
0.069 µM |  | 5.86 µM |  |  | O=C1CN=C(n2cnc(C3CC3)c2)C=C2c3cccc(-c4cnccc4F)c3CCN12 [Example 88k, 2-(4-cyclopropyl-1H-imidazol-1-yl)-9-(4-fluoropyridin-3-yl)-7,8-dihydro-[1,4]diazepino[7,1-a]isoquinolin-5(4H)-one]
 |  | > 10 µM | 72% |  | CO[C@H](C)c1cn(C2=NCC(=O)N3CCc4c(ccnc4C4CC4)C3=C2)cn1 [Example 110c, (R)-9-cyclopropyl-2-(4-(1-methoxyethyl)-1H-imidazol-1-yl)-7,8-dihydro-[1,4]diazepino[7,1-a][2,6]naphthyridin-5(4H)-one]
0.012 µM |  | 5.9 µM |  |  | CCc1cn(C2=NCC(=O)N3CCc4c(cccc4-c4ccc(F)cc4)C3=C2)cn1 [Example 86, 2-(4-ethyl-1H-imidazol-1-yl)-9-(4-fluorophenyl)-7,8-dihydro-[1,4]diazepino[7,1-a]isoquinolin-5(4H)-one]
4.9 µM |  | > 10 µM |  |  | Cn1cnc(C2=NCC(=O)N3CCc4c(cccc4-c4ccncc4)C3=C2)c1 [Example 55, 2-(1-methyl-1H-imidazol-4-yl)-9-(pyridin-4-yl)-7,8-dihydro-[1,4]diazepino[7,1-a]isoquinolin-5(4H)-one]
0.05 µM |  | > 10 µM |  |  | Cc1ncn(C2=NCC(=O)N3CCc4c(ccc(F)c4-c4ccc(F)nc4)C3=C2)n1 [Example 99o, 10-fluoro-9-(6-fluoropyridin-3-yl)-2-(3-methyl-1H-1,2,4-triazol-1-yl)-7,8-dihydro-[1,4]diazepino[7,1-a]isoquinolin-5(4H)-one]
0.048 µM |  | > 10 µM |  |  | Cc1ncn(C2=NCC(=O)N3CCc4c(cccc4-c4cnc(F)cn4)C3=C2)n1 [Example 137, 9-(5-fluoropyrazin-2-yl)-2-(3-methyl-1H-1,2,4-triazol-1-yl)-7,8-dihydro-[1,4]diazepino[7,1-a]isoquinolin-5(4H)-one]
1.3 µM |  | > 10 µM |  |  | COc1cccc(C2=NCC(=O)N3CCc4c(cccc4-c4ccccc4)C3=C2)c1 [Example 49, 2-(3-methoxyphenyl)-9-phenyl-7,8-dihydro-[1,4]diazepino[7,1-a]isoquinolin-5(4H)-one]
0.041 µM |  | 0.093 µM |  |  | O=C1CN=C(c2ccoc2)C=C2c3cccc(I)c3CCN12 [Example 34, 2-(furan-3-yl)-9-iodo-7,8-dihydro-[1,4]diazepino[7,1-a]isoquinolin-5(4H)-one]
0.54 µM |  | > 10 µM |  |  | Cc1cn(C2=NCC(=O)N3CCc4c(cccc4-c4cncnc4)C3=C2)cn1 [Example 78, 2-(4-methyl-1H-imidazol-1-yl)-9-(pyrimidin-5-yl)-7,8-dihydro-[1,4]diazepino[7,1-a]isoquinolin-5(4H)-one]
0.014 µM |  | 0.015 µM |  |  | CC(C)n1cc(C2=NCC(=O)N3CCc4c(I)cccc4C3=C2)cn1 [Example 35, 9-iodo-2-(1-isopropyl-1H-pyrazol-4-yl)-7,8-dihydro-[1,4]diazepino[7,1-a]isoquinolin-5(4H)-one]
0.005 µM | 24% |  |  |  | CCCc1cccc2c1CCN1C(=O)CN=C(n3cnc(-c4ncco4)c3)C=C21 [Example 88a, 2-(4-(oxazol-2-yl)-1H-imidazol-1-yl)-9-propyl-7,8-dihydro-[1,4]diazepino[7,1-a]isoquinolin-5(4H)-one]
0.013 µM |  | 1.4 µM |  |  | COc1cc(C2=NCC(=O)N3CCc4c(I)cccc4C3=C2)ccn1 [Example 33, 9-iodo-2-(2-methoxypyridin-4-yl)-7,8-dihydro-[1,4]diazepino[7,1-a]isoquinolin-5(4H)-one]
2.7 µM |  | > 10 µM |  |  | CC(C)c1cn(C2=NCC(=O)N3CCc4c(-c5ccc(F)nc5)ccnc4C3=C2)cn1 [Example 94, 4-(6-fluoropyridin-3-yl)-11-(4-isopropyl-1H-imidazol-1-yl)-5,6-dihydro-[1,4]diazepino[1,7-h][1,7]naphthyridin-8(9H)-one]
0.034 µM |  | 3.88 µM |  |  | Cc1ncc(-c2cccc3c2CCN2C(=O)CN=C(n4cnc(C5CC5)c4)C=C32)s1 [Example 88e, 2-(4-cyclopropyl-1H-imidazol-1-yl)-9-(2-methylthiazol-5-yl)-7,8-dihydro-[1,4]diazepino[7,1-a]isoquinolin-5(4H)-one]
0.026 µM |  | 0.402 µM |  |  | O=C1CN=C(n2cnc(C3CC3)c2)C=C2c3cccc(-c4cncc(F)n4)c3CCN12 [Example 141, 2-(4-cyclopropyl-1H-imidazol-1-yl)-9-(6-fluoropyrazin-2-yl)-7,8-dihydro-[1,4]diazepino[7,1-a]isoquinolin-5(4H)-one]
0.131 µM | 47% |  |  |  | Cc1cnc(-c2cccc3c2CCN2C(=O)CN=C(n4cnc(C5CC5)c4)C=C32)o1 [Example 88, 2-(4-cyclopropyl-1H-imidazol-1-yl)-9-(5-methyloxazol-2-yl)-7,8-dihydro-[1,4]diazepino[7,1-a]isoquinolin-5(4H)-one]
0.6 µM |  | > 10 µM |  |  | COc1cccc(C2=NCC(=O)N3CCc4c(OC)cccc4C3=C2)n1 [Example 9, 9-methoxy-2-(6-methoxypyridin-2-yl)-7,8-dihydro-[1,4]diazepino[7,1-a]isoquinolin-5(4H)-one]
0.122 µM |  | > 10 µM |  |  | C#Cc1cn(C2=NCC(=O)N3CCc4c(cccc4-c4cscn4)C3=C2)cn1 [Example 105, 2-(4-ethynyl-1H-imidazol-1-yl)-9-(thiazol-4-yl)-7,8-dihydro-[1,4]diazepino[7,1-a]isoquinolin-5(4H)-one]
 |  |  |  | < 20% | CCc1cn(C2=NCC(=O)N3CCc4c(cccc4C4(O)COC4)C3=C2)cn1 [2-(4-ethyl-1H-imidazol-1-yl)-9-(3-hydroxyoxetan-3-yl)-7,8-dihydro-[1,4]diazepino[7,1-a]isoquinolin-5(4H)-one]
 |  |  |  | < 20% | Cc1ccnn1C1=NCC(=O)N2CCc3c(Cl)cccc3C2=C1 [9-chloro-2-(5-methyl-1H-pyrazol-1-yl)-7,8-dihydro-[1,4]diazepino[7,1-a]isoquinolin-5(4H)-one]
0.038 µM |  |  |  |  | O=C1CN=C(n2cnc(C3CCC3)n2)C=C2c3cccc(-c4ccc(F)nc4)c3CCN12 [Example 99h, 2-(3-cyclobutyl-1H-1,2,4-triazol-1-yl)-9-(6-fluoropyridin-3-yl)-7,8-dihydro-[1,4]diazepino[7,1-a]isoquinolin-5(4H)-one]

SMILES | IC50 (human mGluR5a receptors) | inhibition at 10 µM (human mGluR1) | IC50 (human mGluR1) | inhibition at 2 µM (human mGluR5a receptors) | inhibition at 10 µM (human mGluR5a receptors)
COCc1cn(C2=NCC(=O)N3CCc4c(C5CC5)cccc4C3C2)cn1 (stereo not drawn) [Example 143, 9-cyclopropyl-2-(4-(methoxymethyl)-1H-imidazol-1-yl)-1,7,8,12b-tetrahydro-[1,4]diazepino[7,1-a]isoquinolin-5(4H)-one] | 0.282 µM |  | > 10 µM |  | 
O=C1CN=C(n2cnc(C3CC3)c2)C=C2c3cccc(-c4ccc(F)nc4)c3CCN12 [Example 95-1, 2-(4-cyclopropyl-1H-imidazol-1-yl)-9-(6-fluoropyridin-3-yl)-7,8-dihydro-[1,4]diazepino[7,1-a]isoquinolin-5(4H)-one] | 0.02 µM |  | 10 µM |  | 
